Assay results from US7759321B2, “Compounds for the treatment of pain” (Cambridge Biotechnology Ltd, priority 2003, dated 2010).

Key:
[1] = tested on: static allodynia in a model of neuropathic pain; experiment: Static allodynia in a model of neuropathic pain (paw withdrawal threshold); format: in vivo
Description: Spongosine and gabapentin were administered (p.o.) in different proportions as indicated in the drawing. The total dose administered is shown on the horizontal axis, and the paw withdrawal threshold (PWT) on the vertical axis. The predicted anti-hyperalgesic effect (derived from the dose response curves obtained with each agent alone) if the effects of the two compounds are additive is shown (●). The observed effects are indicated by (▪).

adenosine receptors = adenosine receptors (Rattus norvegicus, UniProt P30543); experiment: EC50 at adenosine receptors measured at pH 7.4; format: biochemical
Source text: For the avoidance of doubt, the EC50 value of a compound is defined herein as the concentration of the compound that provokes a receptor response halfway between the baseline receptor response and the maximum receptor response (as determined, for example, using a dose-response curve).
The EC50 value should be determined under standard conditions (balanced salt solutions buffered to pH 7.4). […] The EC50 could also be determined in vivo by measuring adenosine receptor mediated responses in a normal healthy animal, or even in a tissue perfused under normal conditions (i.e. oxygenated blood, or oxygenated isotonic media, also buffered at pH 7.4) in a normal healthy animal.

[2] = tested on: carrageenan (CGN) induced thermal hyperalgesia; experiment: Carrageenan induced thermal hyperalgesia (CITH); format: in vivo; details: 0.624 mg/kg p.o.
Description: Carrageenan (2%, 10 microlitres) was administered into the right hind paw. A heat source was placed close to the treated and untreated hind paws, and the difference in the paw withdrawal latencies is shown. Spongosine was administered at the same time as carrageenan.

[3] = tested on: chronic constriction injury of the rat sciatic nerve; experiment: Chronic constriction injury model of neuropathic pain, thermal hyperalgesia; format: in vivo; details: 0.624 mg/kg p.o.
Source text: After approximately two weeks the rats developed thermal hyperalgesia in the operated leg as judged by the difference in paw withdrawal latencies of the right and left paws.

normal rats = experiment: Blood pressure and heart rate by implantable radiotelemetry; format: in vivo, rat; details: 0.624 mg/kg p.o.
Source text: An implantable radiotelemetry device was placed in the abdominal cavity of 6 rats per group. The pressure catheter of the device was inserted in the abdominal aorta and two electrodes tunnelised under the skin in a lead II position (left side of abdominal cavity/right shoulder). Individual rats were placed in their own cage on a radioreceptor (DSI) for data acquisition. A: blood pressure; B: heart rate.

[4] = Plasma concentration over time after administration; format: in vivo, rat
Description: It can be seen that the plasma concentration remains above 2% of the EC50 value for more than 3 hours.

[5] = tested on: normal physiological nociception; experiment: Normal physiological nociception after administration; format: in vivo
Source text: Compounds of formula (I) are believed to be effective in inhibiting pain perception in mammals suffering from pain, in particular neuropathic and inflammatory pain, even when administered at doses expected to give plasma concentrations well below those known to activate adenosine receptors. […] Therefore, compounds of formula (I) can treat pain (particularly neuropathic and inflammatory pain) without causing the significant side effects associated with administration of other adenosine receptor agonists, and also without reducing normal sensory perception.

rat A2A receptor = rat A2A receptor (Rattus norvegicus, UniProt P30543); details: read-out: EC50 for stimulation of the rat A2A receptor; cited from earlier work
rats = details: cited from earlier work

Sequence of rat A2A receptor (P30543 whole entry): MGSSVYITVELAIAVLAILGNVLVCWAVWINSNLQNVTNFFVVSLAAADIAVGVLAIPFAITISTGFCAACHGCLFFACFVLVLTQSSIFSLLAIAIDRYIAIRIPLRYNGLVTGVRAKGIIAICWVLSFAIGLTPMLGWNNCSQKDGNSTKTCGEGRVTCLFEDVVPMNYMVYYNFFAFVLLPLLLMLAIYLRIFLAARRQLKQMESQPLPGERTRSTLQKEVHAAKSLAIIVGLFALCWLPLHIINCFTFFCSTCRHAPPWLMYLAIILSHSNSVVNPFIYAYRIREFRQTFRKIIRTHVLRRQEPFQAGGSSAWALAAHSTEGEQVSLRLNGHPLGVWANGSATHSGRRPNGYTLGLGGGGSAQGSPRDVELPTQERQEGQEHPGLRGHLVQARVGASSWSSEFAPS
Sequence of adenosine receptors (P30543 whole entry): as above

NCC1(CC(=O)O)CCCCC1 [gabapentin, reference compound]
Effect on static allodynia (paw withdrawal threshold, PWT) ([1]; p.o., Example 6): inhibit static allodynia

COc1nc(N)c2ncn([C@@H]3O[C@H](CO)[C@@H](O)[C@H]3O)c2n1 [Spongosine, 2-methoxyadenosine]
EC50 (adenosine receptors): 3000 nM
Efficacy compared with indomethacin (3 mg/kg p.o.) in carrageenan induced thermal hyperalgesia [2]: as effective as indomethacin
Effect on carrageenan induced thermal hyperalgesia (difference in paw withdrawal latencies) ([2]; given at the same time as carrageenan (2%, 10 microlitres, right hind paw)): inhibits carrageenan (CGN) induced thermal hyperalgesia
Effect on thermal hyperalgesia caused by chronic constriction injury (difference in paw withdrawal latencies) [3]: inhibits thermal hyperalgesia
Efficacy compared with carbamazepine (CBZ, 100 mg/kg s.c.) in chronic constriction injury model [3]: as, or more, effective than carbamazepine
Effect on blood pressure (normal rats): no significant effect
Effect on heart rate (normal rats): no significant effect
Blood pressure effect if the peak plasma concentration reaches the EC50 value ([4]; last for hours): profound reductions in blood pressure
Time plasma concentration remains above 2% of the EC50 value ([4]; rat, 0.6 mg/kg): more than 3 hours
Effect on static allodynia (paw withdrawal threshold, PWT) ([1]; 1.2 mg/kg p.o., in the presence and absence of naloxone (1 mg/kg s.c.)): inhibits static allodynia
Effect on static allodynia (paw withdrawal threshold, PWT) ([1]; p.o., Example 6): inhibit static allodynia
Effect on normal physiological nociception [5]: no effect
EC50 (rat A2A receptor): 3000 nM
Biological activities in rats (rats): muscle relaxant, hypothermic, hypotensive, and anti-inflammatory activity
